Test results reported in US11033604B2, “Reagents and methods for treating bacterial infection” (priority 2018, dated 2021).
Non-standard residues stand in square brackets, D forms with d. No end group written: not given here.

Experiments:
[1] = tested on: S. aureus SH1000 WT biofilms; assay: TEM of biofilm extracellular fibrils; assay type: cell-based, Staphylococcus aureus; settings: LB medium, 80 μM
Experimental: FIG. 2. S. aureus biofilm structures become less robust when grown in the presence of designed peptide inhibitors. (A) S. aureus MN8+mCherry™ biofilms were grown on glass substrates for 24 hours and then cells were washed and fixed. Addition of peptide inhibitors (80 μM) reduced adhesion to the slide, causing cells to detach during the wash step. Images are representative of duplicate wells. (B) In S. aureus SH1000 WT biofilms grown in regular LB medium, PSM amyloid fibrils are visible as deposits in spaces between cells (left). Upon addition of the designed peptide AP90 (80 μM), no extracellular fibril deposits were observed (right).
To further investigate the ability of designed peptides to inhibit PSM amyloid formation, fluorescent (mCherry™ ) MN8 biofilms were grown in culture plates with glass bottom wells. After 24 hours at 37° C. the biofilms were gently rinsed with pipetted saline to remove unattached biomass and the remaining attached cells were fixed and imaged. […] These qualitative results are in good agreement with the quantitative results obtained for amyloid inhibition in FIG. 1B. Addition of anti-α-sheet peptides triggered a significant reduction in PSM amyloid formation as measured by ThT fluorescence and also served to weaken the S. aureus biofilms by reducing the PSM amyloid fibril content of the extracellular matrix. […]

UTI89 WT biofilms = assay: Biofilm adherence to glass slides after washing; assay type: cell-based, E. coli; settings: after gentle washing
Text: (§1) FIG. 12. […] Error bars indicate standard deviation of the mean of at least three replicates. Significance values are p<0.05: *, p<0.01: **, p<0.001: ***.
(§2) UTI89 biofilms were also cultivated in the presence of an unstructured peptide, P1, which retains a mixture of L- and D-amino acids but lacks the α-sheet secondary structure of AP193.

[2] = tested on: E. coli UTI89 WT biofilms; assay: In situ ThT assay of EM amyloid in E. coli UTI89 WT biofilms; assay type: cell-based
Experimental: as §1
(§3) Biofilms of the cystitis E. coli isolate UTI89 were cultivated in YESCA broth with 4% DMSO at 26° C., conditions which are known to elicit increased curli biogenesis. Varying doses of the dimeric α-sheet peptide, AP193, were also added to the cultures at the time of inoculation. AP193 is covalently linked through a single cysteine in each of its constituent monomers. Since DMSO was already present in the biofilm growth medium, AP193 stocks were supplemented with 4% DMSO to improve solubility, and the buffer solution was maintained at high pH (sodium carbonate, pH 9.6) to retain oxidation of the disulfide bond. After 48 hours of growth, biofilms were washed, homogenized, and stained with ThT.
as §2

[3] = tested on: E. coli UTI89 vsfGFP-9 biofilms; assay: Immune clearance test: phagocytosis of biofilm bacteria by RAW 264.7 macrophages (flow cytometry); assay type: cell-based; settings: RAW 264.7 cells, 10:1 bacteria:cell, 30 min, 37° C.
Experimental: FIG. 14. The macrophages are not able to phagocytose biofilm-associated bacteria (A). Administration of AP193 breaks up the biofilms and yields a greater fraction of free-swimming bacteria that are susceptible to phagocytosis (B).
To investigate this proposition, biofilms were cultivated in the presence or absence of synthetic α-sheet peptides (shown for AP193 in FIG. 14) and then co-incubated with murine macrophages. A chromosome-based GFP derivative of E. coli UTI89, vsfGFP-9, was used to visualize the extent of phagocytosis in each case with flow cytometry. Murine monocyte/macrophage-like cells, RAW 264.7, were cultured in DMED+10% FBS at 37° C. in 75 cm^2 flasks. Biofilms were grown in 48 well plates for 48 h in YESCA broth+4% DMSO at 26° C. Planktonic cells were aspirated and biofilms rinsed and gently detached from plates using sterile PBS. The suspensions were combined in a 10:1 (bacteria:cell) ratio with RAW 264.7 cells and incubated for 30 min at 37° C. in PBS to allow uptake of bacteria by macrophages. Trypsin was added at a concentration of 0.25% and incubated for 10 min to remove any bacteria bound to the external surfaces of the RAW 264.7 cells. […] Cells were then gated according to positive GFP (phagocytosed bacteria) using bacteria-free controls on a FACS Cantoll flow cytometer, and the percentage of cells positive for GFP was recorded and analyzed.

GERB 319 = assay: ThT assay of EM amyloid in clinical isolate biofilms; assay type: cell-based, E. coli; settings: antibiotic resistant clinical isolate GERB 319
Text: (§4) FIG. 12. Synthetic α-sheet peptides inhibit amyloid formation in uropathogenic E. coli biofilms. […] E) AP193 is also effective in reducing the EM amyloid content of two clinical isolate strains, GERB 319 and GERB 337. Error bars indicate standard deviation of the mean of at least three replicates. Significance values are p<0.05: *, p<0.01: **, p<0.001: ***.
(§5) To extend the applicability of synthetic α-sheet peptides beyond the well-characterized UTI89 system, we obtained several E. coli isolates from pediatric patients who presented with urinary tract infections.

GERB 337 = assay: as above; assay type: cell-based, E. coli; settings: antibiotic resistant clinical isolate GERB 337
Text: as §4, §5

CsgA = CsgA (Escherichia coli, UniProt P28307); settings: dimeric AP193, 14:1 molar ratio (CsgA:AP193), 150 h, 25° C.
Sequence of CsgA (P28307 21-151): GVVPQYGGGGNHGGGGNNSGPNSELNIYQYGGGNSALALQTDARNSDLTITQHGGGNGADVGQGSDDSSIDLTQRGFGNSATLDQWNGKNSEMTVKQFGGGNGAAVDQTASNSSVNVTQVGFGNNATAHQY
Experimental: A) CsgA aggregation monitored by ThT fluorescence. […] Error bars represent one standard deviation from the mean of three replicates.
For inhibition assays with CsgA, purified, recombinant CsgA was desalted from a stock solution containing 8 M Gnd HCl into 50 mM potassium phosphate buffer (KPi, pH 6.2) and diluted to a final concentration of 0.2 mg/m L. Samples were aliquoted into 96 well plates and incubated quiescently at 25° C. Plates were removed for periodic measurements in a plate reader, where the fluorescence of Thioflavin T (ThT) was used to monitor protein fibril formation in real time. ThT fluoresces upon binding p-sheet structure and serves as a proxy for amyloid fibril content.
In some samples, the dimeric α-sheet peptide AP193 was also added to the mixture at a molar ratio of 14:1 (CsgA:AP193). After 150 h incubation, the extent of amyloid formation in the two samples was measured by ThT fluorescence (FIG. 11C).

UTI89 ΔcsgA biofilms = assay: In situ ThT assay in UTI89 ΔcsgA knockout biofilms; assay type: cell-based, E. coli; settings: UTI89 ΔcsgA knockout strain
Experimental: as §1, §3, §2

RGEmNlSwMNEYSGWtMnLkMGR (RGEMNLSWMNEYSGWTMNLKMGR; not fully specified (residues 4, 6, 8, 16, 18, 20); printed as RGEmNlSwMNEYSGWtMnLkMGR) [AP90]
Extracellular PSM amyloid fibril deposits by TEM [1]: amyloid fibrils could not be found

RGEmNyFwMNEYYGWtMnCkMGR (RGE[dM]N[dY]F[dW]MNEYYGW[dT]M[dN]C[dK]MGR) [AP193, hydrophobic AP90 derivative, variant to support different chemical coupling reactions]
Adherence of biofilm to glass slides (UTI89 WT biofilms): far less adherent to glass slides
EM amyloid content of biofilm (ThT fluorescence), varying doses ([2]; YESCA broth + 4% DMSO, 26° C., 48 h): dose-dependent reduction in ThT fluorescence
ThT fluorescence of biofilm at highest dose ([2]; highest dose): reduced the ThT fluorescence of WT biofilms to levels near those of the ΔcsgA strain
Susceptibility of biofilm bacteria to phagocytosis [3]: more susceptible to phagocytosis
ThT fluorescence of biofilm (GERB 319): significant decrease in ThT fluorescence
ThT fluorescence of biofilm (GERB 337): significant decrease in ThT fluorescence
CsgA fibril formation (endpoint ThT fluorescence) (CsgA): significantly reduced
ThT fluorescence of biofilm (UTI89 ΔcsgA biofilms): no significant changes
